According to patent US7022882B2, “NMDA receptor channel blocker with neuroprotective activity” (priority 2000, dated 2006):
“And” between values parts separate entries of the source, which are not always exact repeats. Equal entries are not always repeated. “Also recorded” adds a separate entry of the source. Where two headings read alike, the source gives them in different places.

Assays:
[1] = system: cultured hippocampal neurons; assay: Kainate induced neuronal cell death in hippocampal cultures; assay type: cell-based, rat; details: 20 μM CNQX, 10 μM MK-801, 10 μM memantine or 10 μM NBTA
Procedure: FIG. 7. NBTA protects cultured hippocampal neurons from NMDA receptor-mediated excitotoxic cell death. Trypan blue exclusion assays of (A) control neurons and neurons exposed to 200 μM NMDA in the absence (B) or presence of 10 μM memantine (C); and in the presence of 10 μM NBTA (D). (E) Normalized cell death in the absence and presence of the lead. (F) Neuronal death induced by kainate in the absence or presence of 20 μM CNQX, 10 μM MK-801, 10 μM memantine or 10 μM NBTA. Data are mean±s.e., n=2000.
To evaluate the specificity of the neuroprotective effect of NBTA<its activity against kainate induced neuronal cell death was assessed.
(§1) Mixed hippocampal neuron/glia primary cultures were employed to assess the neuroprotective activities of the identified lead against NMDA receptor-mediated excitotoxic cell death. Primary culture of rat hippocampal neurons were prepared as previously described (Ferrer-Montiel A. V., et al., Nat. Biotechnol., 16(3):286–91, 1998; Schinder A. F., et al.; J. Neurosci., 16(19):6125–33, 1996). In brief, hippocampi from E17–E19 rat embryos were first taken out and incubated at 4° C. in a saline (BSS) containing (mM): 137 NaCl, 3.5 KCl, 0.4 KH2PO4, 0.33 Na2HPO4.7H2O, 5 TES, and 10 glucose, pH 7.4. Hippocampi were then incubated in 0.25% trypsin (1×) solution from Hyclone at 37° C. for 15 min. Tissues were then washed and resuspended in minimal essential medium (Earle's salt) supplemented with 10% heat-inactivated horse serum (Hyclone), 10% fetal bovine serum (Hyclone), 1 mM […], 22 mM glucose, 20U/ml penicillin and 20 ug/ml streptomycin. Digested hippocampi were eventually dissociated by pipetting through a Pasteur pipette. Cells were plated at a density of 5×10^4 cells/cm^2.

[2] = target: T1, NMDA receptors (NR1/NR2A) (Homo sapiens, UniProt Q05586+Q12879); details: literature values; cited from earlier work
T1 sequence (Q12879 23-1464, other chains not shown): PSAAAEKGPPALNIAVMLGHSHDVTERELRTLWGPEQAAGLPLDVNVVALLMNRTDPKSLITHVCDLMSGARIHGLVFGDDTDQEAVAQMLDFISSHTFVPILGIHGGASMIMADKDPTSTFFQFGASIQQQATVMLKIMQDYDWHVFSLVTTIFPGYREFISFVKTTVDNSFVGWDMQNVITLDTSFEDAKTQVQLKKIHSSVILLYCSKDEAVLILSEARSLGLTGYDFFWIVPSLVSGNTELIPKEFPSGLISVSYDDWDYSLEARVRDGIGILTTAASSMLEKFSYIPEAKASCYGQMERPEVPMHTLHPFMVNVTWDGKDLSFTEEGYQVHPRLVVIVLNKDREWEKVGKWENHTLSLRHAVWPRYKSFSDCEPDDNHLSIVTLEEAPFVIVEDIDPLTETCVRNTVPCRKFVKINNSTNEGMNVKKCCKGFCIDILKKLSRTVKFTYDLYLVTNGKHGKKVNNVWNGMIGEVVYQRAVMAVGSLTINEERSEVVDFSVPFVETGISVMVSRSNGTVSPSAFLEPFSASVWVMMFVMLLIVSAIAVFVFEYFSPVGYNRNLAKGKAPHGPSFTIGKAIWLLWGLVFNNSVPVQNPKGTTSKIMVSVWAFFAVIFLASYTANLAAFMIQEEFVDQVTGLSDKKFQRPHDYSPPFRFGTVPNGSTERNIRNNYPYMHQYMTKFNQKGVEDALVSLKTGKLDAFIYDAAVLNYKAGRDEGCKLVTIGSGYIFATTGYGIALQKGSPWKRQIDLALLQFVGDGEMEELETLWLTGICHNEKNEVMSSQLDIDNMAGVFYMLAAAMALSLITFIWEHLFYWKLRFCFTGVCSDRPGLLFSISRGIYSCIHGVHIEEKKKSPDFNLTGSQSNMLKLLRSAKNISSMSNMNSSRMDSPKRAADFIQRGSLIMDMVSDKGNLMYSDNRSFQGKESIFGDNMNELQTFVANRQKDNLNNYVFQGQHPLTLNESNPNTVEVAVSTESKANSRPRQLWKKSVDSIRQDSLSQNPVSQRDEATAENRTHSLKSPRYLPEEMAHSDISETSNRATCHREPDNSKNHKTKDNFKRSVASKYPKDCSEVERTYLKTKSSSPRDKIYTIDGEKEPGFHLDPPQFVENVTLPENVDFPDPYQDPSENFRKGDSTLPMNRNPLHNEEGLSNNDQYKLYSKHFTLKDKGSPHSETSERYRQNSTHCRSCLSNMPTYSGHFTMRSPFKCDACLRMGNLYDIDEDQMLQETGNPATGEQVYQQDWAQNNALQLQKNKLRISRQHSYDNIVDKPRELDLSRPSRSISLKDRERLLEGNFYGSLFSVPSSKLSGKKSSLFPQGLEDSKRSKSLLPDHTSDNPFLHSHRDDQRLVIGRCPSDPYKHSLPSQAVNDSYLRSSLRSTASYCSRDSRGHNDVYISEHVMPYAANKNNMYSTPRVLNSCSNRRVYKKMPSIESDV

[3] = system: cultured rat hippocampal neurons; assay: Excitotoxic assay in hippocampal cultures, NMDA challenge, trypan blue exclusion; assay type: cell-based; details: 200 μM NMDA and 20 μM glycine for 20 min; for protection from NMDA receptor-mediated cell death: 10 μM, cell death by NMDA alone = 100%
Procedure: as §1
Neurons cultured 14–17 days were used for the excitotoxic assays. Cultured medium was first removed and rinsed with BSS supplemented with 1 mM CaCl2, and 20 μM glycine. Neurons were challenged with 200 μM NMDA in the absence and presence of […] for 20 min at room temperature. The insults were terminated by removing the BSS containing NMDA. To reduce the excitotoxic effect due to the residual NMDA, the culture medium was supplemented with 20 μM MK-801. Cell cultures were returned to the incubator (37° C., 5% CO2). Cell death was assessed 20–24 hours after the challenge with trypan blue (0.04%) exclusion assays. Fraction of dead cells in cultures treated with control buffer (8±3%, n=2000) was subtracted as background.
NMDA insult alone caused significant cell death of 45±6% (n=2000). Neuroprotective activities as described in the Detailed Description of the Invention were expressed as percentage of net cell death in the absence and presence of 10 μM of the known NMDA receptor blockers and the identified compound. Cell death elicited by NMDA alone was considered as 100%. The assays were repeated in 4 separated occasions with different culture preparations.

[4] = target: NMDA receptor, NR1 N616R (Homo sapiens, UniProt Q05586+Q12879, N616R); assay: Block of NMDA receptor with NR1 N-site mutant N616R in oocytes; assay type: cell-based; details: versus wild type
[5] = target: NMDA receptor, NR1 mutant (N616Q) (Homo sapiens, UniProt Q05586+Q12879, N616Q); assay: Block of NMDA receptor with NR1 mutant N616Q in oocytes; assay type: cell-based; details: versus wild type
[6] = target: NMDA receptor, S616G (Homo sapiens, UniProt Q05586+Q12879, S616G); assay: Block of NMDA receptor with S616G mutation in oocytes; assay type: cell-based; details: versus wild type
Chain of NMDA receptor, S616G (Q12879 23-1464 S616G, other chains not shown): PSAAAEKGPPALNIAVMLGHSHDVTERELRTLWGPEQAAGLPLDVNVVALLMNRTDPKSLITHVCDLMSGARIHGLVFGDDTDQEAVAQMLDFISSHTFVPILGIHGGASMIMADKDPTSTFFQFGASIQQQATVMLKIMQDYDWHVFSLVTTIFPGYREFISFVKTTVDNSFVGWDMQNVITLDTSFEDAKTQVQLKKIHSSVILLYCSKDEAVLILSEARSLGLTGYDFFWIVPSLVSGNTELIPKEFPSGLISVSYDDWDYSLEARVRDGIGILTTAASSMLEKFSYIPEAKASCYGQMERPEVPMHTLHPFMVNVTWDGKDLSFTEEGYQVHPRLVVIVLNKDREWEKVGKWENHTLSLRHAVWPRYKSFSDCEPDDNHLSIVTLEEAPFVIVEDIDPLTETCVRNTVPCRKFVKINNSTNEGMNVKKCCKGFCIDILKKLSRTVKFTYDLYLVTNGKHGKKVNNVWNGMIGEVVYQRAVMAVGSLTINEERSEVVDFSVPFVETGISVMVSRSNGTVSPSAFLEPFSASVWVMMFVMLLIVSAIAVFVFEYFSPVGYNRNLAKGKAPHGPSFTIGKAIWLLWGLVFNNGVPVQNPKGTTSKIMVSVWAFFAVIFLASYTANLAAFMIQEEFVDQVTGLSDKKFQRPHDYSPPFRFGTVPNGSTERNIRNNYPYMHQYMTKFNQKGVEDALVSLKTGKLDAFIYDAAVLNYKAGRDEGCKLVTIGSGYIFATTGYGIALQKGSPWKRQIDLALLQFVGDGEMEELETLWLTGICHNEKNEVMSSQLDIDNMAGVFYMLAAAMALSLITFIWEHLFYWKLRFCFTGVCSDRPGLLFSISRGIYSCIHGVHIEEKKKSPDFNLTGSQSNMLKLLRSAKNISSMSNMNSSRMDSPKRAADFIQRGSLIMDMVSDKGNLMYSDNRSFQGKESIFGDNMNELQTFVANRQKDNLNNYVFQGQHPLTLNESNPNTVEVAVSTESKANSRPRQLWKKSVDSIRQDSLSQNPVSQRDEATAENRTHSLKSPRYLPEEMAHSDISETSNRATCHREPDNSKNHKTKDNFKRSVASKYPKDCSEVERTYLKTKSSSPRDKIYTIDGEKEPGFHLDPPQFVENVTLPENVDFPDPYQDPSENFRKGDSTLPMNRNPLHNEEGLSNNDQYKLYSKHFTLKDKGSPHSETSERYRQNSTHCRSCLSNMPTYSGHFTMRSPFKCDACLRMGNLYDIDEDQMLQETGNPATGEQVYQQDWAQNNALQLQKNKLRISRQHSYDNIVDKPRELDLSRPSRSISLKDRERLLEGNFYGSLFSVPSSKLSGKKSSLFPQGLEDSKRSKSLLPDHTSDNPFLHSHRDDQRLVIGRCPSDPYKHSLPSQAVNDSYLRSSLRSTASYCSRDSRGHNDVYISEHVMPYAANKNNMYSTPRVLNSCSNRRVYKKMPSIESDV
Procedure: (§2) In contrast, mutations at N614G, N615G and S616G in the M2 segment had no effect on NBTA binding.
(§3) Oocytes of stage V and VI were surgically removed from the ovaries of […] anesthetized with 0.4% ethyl 3-amino-benzoate methanesulfonic acid-Clusters of oocytes were incubated with 2 mg/ml collagenase (Life Technologies, Gaithersburg, Md.) for 1 hour 20 min in Ca^2+-free solution comprised of (mM) 82.5 NaCl, 2.5 KCl, 1 MgCl2, 5 HEPES, pH 7.4 with vigorous agitation to remove the follicular cell layer. Oocytes were then washed extensively with the Ca^2+-free solution to remove the collagenase. Oocytes were eventually incubated in Barth's solution consisted of (in mM): 96 NaCl, 2 mM KCl, 1.8 CaCl2, 1 MgCl2, 5 HEPES supplemented with 100U/ml penicillin and 100 ug/ml streptomycin, pH 7.4 at 17° C. Oocytes were injected with 5–15 ng of cRNA encoding NR1 or its mutant premixed with three-fold amount of cRNA encoding NR2A.
(§4) On days two to six following injection of cRNAs, whole oocyte currents were recorded with standard two-electrode voltage-clamp. […] The blocking activities of the library were assessed at 10 μM (assuming the molecular weight is ˜500). […] Blocking activity of the mixture is expressed as fraction of response blocked by the mixture. […]

[7] = target: NMDA receptor, N614G (NR2 mutant) (Homo sapiens, UniProt Q05586+Q12879, N614G); assay: Block of NMDA receptor with N614G mutation in oocytes; assay type: cell-based; details: versus wild type
Procedure: as §2, §3, §4

[8] = target: T2, non-NMDA glutamate receptor GluR1 (Homo sapiens, UniProt P42261); assay: Two-electrode voltage-clamp block of GluR1 expressed in Xenopus oocytes; assay type: cell-based
T2 construct: expressed in transfected cells
T2 sequence (P42261 19-906): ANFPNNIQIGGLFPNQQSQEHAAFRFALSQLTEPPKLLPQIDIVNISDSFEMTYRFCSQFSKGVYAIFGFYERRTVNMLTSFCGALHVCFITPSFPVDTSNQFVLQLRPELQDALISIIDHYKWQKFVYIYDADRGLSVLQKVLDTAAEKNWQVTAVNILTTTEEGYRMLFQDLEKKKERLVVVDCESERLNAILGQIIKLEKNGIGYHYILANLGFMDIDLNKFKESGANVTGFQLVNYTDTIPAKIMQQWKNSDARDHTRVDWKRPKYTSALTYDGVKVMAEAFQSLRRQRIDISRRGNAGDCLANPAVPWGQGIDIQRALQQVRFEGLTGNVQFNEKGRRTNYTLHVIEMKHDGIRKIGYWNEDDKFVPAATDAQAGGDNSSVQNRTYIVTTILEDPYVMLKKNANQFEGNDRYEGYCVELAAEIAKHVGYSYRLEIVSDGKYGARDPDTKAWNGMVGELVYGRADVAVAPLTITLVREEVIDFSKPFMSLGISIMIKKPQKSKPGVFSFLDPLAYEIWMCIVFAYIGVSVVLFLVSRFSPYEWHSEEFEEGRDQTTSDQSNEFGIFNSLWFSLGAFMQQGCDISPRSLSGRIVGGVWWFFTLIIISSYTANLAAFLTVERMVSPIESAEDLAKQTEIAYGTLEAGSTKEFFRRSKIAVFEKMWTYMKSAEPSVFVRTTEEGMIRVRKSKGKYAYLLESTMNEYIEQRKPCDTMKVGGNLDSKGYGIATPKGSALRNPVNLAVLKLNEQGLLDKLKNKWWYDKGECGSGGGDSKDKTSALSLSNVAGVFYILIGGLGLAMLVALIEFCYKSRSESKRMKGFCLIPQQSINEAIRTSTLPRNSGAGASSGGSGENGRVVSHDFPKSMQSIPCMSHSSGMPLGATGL
Excerpt: Recombinant NMDA receptor subunits, NR1 (Planells-Cases R, et al., Proc. Natl. Acad. Sci. USA, 90(11):5057–61, 1993) and NR2A (Le Bourdelles B, et al., J. Neurochem., 62(6):2091–8, 1994) was used for screening the dipeptidomimetic combinatorial library. cDNAs of NR1 and NR2A were linearized with NOT1. cRNAs encoding NR1 and NR2A were synthesized from the linearized cDNAs templates according to manufacturer specifications (Ambion). NR1 mutant (N616Q) was used to examine the site of action of the identified lead. The NR1A mutants were linearized with NOT1 and use of T7 for sense. cDNA of human glutamate receptor/GluR1 (Sun W., et al., Proc. Natl. Acad. Sci. USA, 89:1443–1447, 1992) was linearized with Hind III and the use of T3 promoter for the synthesis of its […]. cDNAs were quantified by spectroscopy and the quality were assessed by gel electrophoresis. […]
as §4

[9] = target: T1, NMDA receptors (NR1/NR2A); assay: Two-electrode voltage-clamp block of recombinant NMDA receptors expressed in Xenopus oocytes; assay type: cell-based
Procedure: Oocytes of stage V and VI were surgically removed from the ovaries of Xenopus oocytes anesthetized with 0.4% ethyl 3-amino-benzoate methanesulfonic acid-Clusters of oocytes were incubated with 2 mg/ml collagenase (Life Technologies, Gaithersburg, Md.) for 1 hour 20 min in Ca^2+-free solution comprised of (mM) 82.5 NaCl, 2.5 KCl, 1 MgCl2, 5 HEPES, pH 7.4 with vigorous agitation to remove the follicular cell layer. Oocytes were then washed extensively with the Ca^2+-free solution to remove the collagenase. Oocytes were eventually incubated in Barth's solution consisted of (in mM): 96 NaCl, 2 mM KCl, 1.8 CaCl2, 1 MgCl2, 5 HEPES supplemented with 100U/ml penicillin and 100 ug/ml streptomycin, pH 7.4 at 17° C. Oocytes were injected with 5–15 ng of cRNA encoding NR1 or its mutant premixed with three-fold amount of cRNA encoding NR2A.
On days two to six following injection of cRNAs, whole oocyte currents were recorded with standard two-electrode voltage-clamp. All electrophysiological studies, unless otherwise stated, were performed in Ba^2+/flufenamic-Ringer's solution (in mM: 10 HEPES pH7.5, 115 NaCl, 2.8 KCl, 2.0 BaCl2, 0.1 flufenamic, 0.1 niflumic acid) at ambient temperature as previously described (Ostresh J. M., et al., J. Org. Chem., 63:8622–8623, 1998; Nefzi A., et al., Tetrahedron, 55:335–344, 1999). Both current and voltage electrodes were filled with 3M KCl and have a tested resistance of 0.5–1 MOhm. The blocking activities of the library were assessed at 10 μM (assuming the molecular weight is ˜500). […] Inward currents were elicited from a holding potential of −80 mV except where indicated. […] Blocking activity of the mixture is expressed as fraction of response blocked by the mixture. Dose-response curves were fitted to the Hill equation:
[formula] where y is the ratio of current in the presence and presence of blocker, [x] is the blocker concentration, and IC50 and nH represent the concentration blocks 50% of response and Hill coefficient, respectively. Current-voltage relationships were measured first in the absence and then in the presence of a given concentration of lead at a specified membrane holding potential, and the ratio of these currents was plotted as a function of the holding potential. Analysis of the voltage dependent block current was performed according to the model proposed by Woodhull (Woodhull A. M., J. Gen. Physiol., 61:687–708, 1973). Data were fitted with the equation according to Zarei and Dani (Zarei M. M. and Dani J. A., J. Gen. Physiol., 1103(2):231–48, 1994):
[formula] where Ib and Ic are currents recorded during the blockade and control, respectively; [B] is the concentration of the blocker; Kd is the dissociation constant of the blocker at 0 mV; δ is the fraction of the membrane field sensed by the blocker as it binds to its site; V is the command voltage; R is the gas constant; T is the absolute temperature; F is the Faraday's number; z is the valence of the blocker.

[10] = target: NMDA receptor, N616Q (NR1 mutant) with N614G (NR2 mutant) (Homo sapiens, UniProt Q05586+Q12879, N614G/N616Q); assay: Block of NMDA receptor with coexpressed N616Q (NR1 mutant) and N614G (NR2 mutant) in oocytes; assay type: cell-based; details: versus N616Q alone
Procedure: as §2, §3, §4

[11] = target: NMDA receptor, N615G (Homo sapiens, UniProt Q05586+Q12879, N615G); assay: Block of NMDA receptor with N615G mutation in oocytes; assay type: cell-based; details: versus wild type
Procedure: as §2, §3, §4

[12] = target: NMDA receptor, NR2A tryptophan 606 to leucine (Homo sapiens, UniProt Q05586+Q12879, W606L); assay: Block of NMDA receptor with NR2A tryptophan 606 to leucine substitution in oocytes; assay type: cell-based; details: versus wild type
Procedure: as §2, §3, §4

For `CC12CC3CC(C)(C1)CC(N)(C3)C2` [memantine, 1-amino-3,5-dimethyladamantane], the “effect on neuronal cell death induced by kainate” value (“effect … by kainate” below) [1] is listed as “protect neurons as well, though not as effectively as CNQX”, the “δ, fraction of the membrane field sensed by the blocker” value (shortened to “δ, fraction”) [2] is listed as roughly 0.77 and the “protection from NMDA receptor-mediated cell death” value (“protection” for short) [3] is listed as 93±1%.
In the case of `C[C@]12N[C@H](Cc3ccccc31)c1ccccc12` [MK-801], the “effect … by kainate” value [1] is reported as “protect neurons as well, though not as effectively as CNQX” and the “protection” value [3] is reported as 89±1%.
For `[Mg+2]` [Mg^2+], the “δ, fraction” value [2] is listed as roughly 0.77.
For `N#Cc1cc2c(cc1[N+](=O)[O-])=NC(=O)C(=O)N=2` [CNQX, 6-cyano-7 nitroquinoxaline-2,3-dione], the “effect … by kainate” value [1] was “protects neurons”.
With `CCC(C)C(N)CN(Cc1ccccc1)C(CNCc1ccccc1)Cc1ccc(O)cc1` (stereo not shown) [NBTA] the “reduction of blocking activity by N616R substitution” value [4] was 275 fold, the “change of blocking activity by replacement of N616 for glutamine” value [5] was “only slightly reduces” and the “effect … by kainate” value [1] was “no effect”. For the same compound, the “effect of S616G mutation on binding” value [6] was “no effect”, the “effect of N614G mutation on binding” value [7] was “no effect” and the “block of GluR1” value ([8]; 1 μM) was “not”. The “effect on GluR1 / AMPA receptors” value ([8]; even at 1 mM / mM concentration range) was “no effect at all”, the “use dependence of NMDA receptor block” value ([9]; 0.1 μM, repetitive pulses of glutamate (200 μM) and glycine (20 μM), -80 mV) was “progressive block; also recorded: progressive blockade” and the “block of NMDA current” value ([9]; 1 μM compound, -80 mV) was 70±3% and ~95%. For the same compound, the IC50 ([9]; Hill equation fit, n=6, read-out: IC50, wild-type NMDA receptors (NR1/NR2A)) was 80 nM, the “δ, fraction” value ([9]; Woodhull model of voltage-dependent block) was 0.56 and the “fraction of transmembrane electric field traversed to reach binding site” value ([9]; from δ) was roughly 56%. The “voltage dependence of NMDA current reduction” value ([9]; voltage-ramp protocol, 200 μM L-glutamic acid plus 20 μM glycine) was “voltage-dependent”, the “binding with coexpressed N616Q and N614G compared with N616Q alone” value [10] was “similar” and the “effect of N615G mutation on binding” value [11] was “no effect”. For the same compound, the “protection” value [3] was 83±2% and the “reduction of blocking activity by tryptophan to leucine substitution in NR2A” value [12] was 4.7 fold.
In the case of `CN[C@H](CC(=O)O)C(=O)O` [NMDA, N-methyl-D aspartate], the “cell death induced by NMDA” value ([3]; no blocker) is reported as 50±3% and 45±6%.
